In patent US20240358665A1, “SMALL MOLECULE MELPHALAN HYDROGEL AND METHOD FOR PREPARING THE SAME” (Changzhi Medical College, priority 2024, published 2024):

Test: Change of transmittance over time at 790 nm (ultraviolet spectrophotometer)
Assay type: physicochemical
Details: melphalan dissolved in physiological saline (FIG. 5: 0.9% NaCl, content 2%)
Description: The small molecule melphalan hydrogels prepared in Embodiments 1 to 3 of the present disclosure are tested for transmittance, and the specific testing steps are as follows: • Prepare small molecule melphalan solutions according to the methods in Embodiments 1 to 3 above, take 3 mL of the solution and place it in a glass dish, and place the glass dish in an ultraviolet spectrophotometer, and measure the change of transmittance over time, at 790 nm. The phenomenon that the transmittance gradually decreases from 100% (solution state) to less than 10% proves that the small molecule melphalan solution is transformed into a hydrogel.

N[C@@H](Cc1ccc(N(CCCl)CCCl)cc1)C(=O)O [melphalan, Melphalan]
transmittance after gelation (falls from 100% in solution state): less than 10%
